The text below walks through data of patent publication US11730720B2, “ALK5 inhibitors” (THERAVANCE BIOPHARMA R&D IP, LLC, priority 2018, dated 2023).

Molecules are shown by their SMILES. Bounds are passed on as bounds.

The target in experiment [1] is T1, recombinant human ALK5 (TGF-βR1) protein (Homo sapiens, UniProt P36897).
T1 construct: purchased Life Technologies PR9075A
T1 sequence (P36897 34-503): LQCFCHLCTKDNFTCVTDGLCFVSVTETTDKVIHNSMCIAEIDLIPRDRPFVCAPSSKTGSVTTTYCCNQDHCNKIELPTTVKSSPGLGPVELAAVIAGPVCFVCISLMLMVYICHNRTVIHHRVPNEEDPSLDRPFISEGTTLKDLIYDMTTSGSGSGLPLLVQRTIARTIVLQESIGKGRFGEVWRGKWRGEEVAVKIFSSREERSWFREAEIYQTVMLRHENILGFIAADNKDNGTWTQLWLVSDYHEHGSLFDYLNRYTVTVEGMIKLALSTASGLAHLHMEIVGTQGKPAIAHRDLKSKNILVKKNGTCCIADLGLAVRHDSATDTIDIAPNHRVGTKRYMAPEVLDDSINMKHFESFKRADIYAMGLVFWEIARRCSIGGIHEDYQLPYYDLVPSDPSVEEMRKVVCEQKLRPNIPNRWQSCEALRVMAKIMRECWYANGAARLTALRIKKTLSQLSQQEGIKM
Put plainly: Biochemical ALK5 (TGF-βR1) assay to measure pKi (LANCE Ultra ULight kinase assay). To be noted: apparent pKi, converted from pIC50 using the Cheng-Prusoff equation. The method in brief: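 TR-FRET kinase format: compound dose range 10 μM–25 pM equilibrated 60 min with human ALK5 and ULight-labelled topoisomerase 2α peptide in HEPES/MgCl2 buffer pH 7.5 with DTT. Reaction started with ATP (125 μM stock, 5× final), 60 min at 37° C, stopped with EDTA/Eu-anti-phospho antibody; pKi derived from pIC50 via Cheng-Prusoff.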
(In general: Time-resolved FRET reads energy transfer from a long-lived donor to a nearby acceptor.)

Experiment [2] concerns TGF-β-stimulated SMAD3 phosphorylation in BEAS-2B cells. Put plainly: Cellular ALK5 potency assay, inhibition of TGF-β stimulated pSMAD3 formation in BEAS-2B cells. Conditions: Homo sapiens, inhibition of TGF-β (10 ng/mL) stimulated pSMAD3 formation, 1 hour compound incubation, read-out: BEAS2B pIC50 (converted). The experiment is classed as cell-based. The method in brief: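 Phospho-SMAD3 was quantified by AlphaLISA in lysates of human lung epithelial BEAS-2B cells. Compound was added 1 h (37 °C, HEPES/BSA-supplemented HBSS) before a 30 min challenge with 10 ng/mL TGF-β. Values are pIC50 relative to stimulated cells without compound.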

Consider `CC(C)N1CCN(c2cnc3ccc(-c4c[nH]nc4-c4ccc(F)c(F)c4)nc3c2)CC1` [Compound 8-10, 2-[3-(3,4-difluorophenyl)-1H-pyrazol-4-yl]-7-(4-isopropylpiperazin-1-yl)-1,5-naphthyridine], for which the Ki in experiment [1] was 0.398 to 3.16 nM. Besides, the IC50 in experiment [2] was 25.1 to 158 nM.
The matching figures for `CC(C)N1CC=C(c2cnc3ccc(-c4c[nH]nc4-c4ccc(F)c(F)c4)nc3c2)C1` [Compound 8-23, 2-[3-(3,4-difluorophenyl)-1H-pyrazol-4-yl]-7-(1-isopropyl-2,5-dihydropyrrol-3-yl)-1,5-naphthyridine]: 0.398 to 3.16 nM and 25.1 to 158 nM.
The matching figures for `CCOC(=O)[C@H]1CN(c2cnc3ccc(-c4nc[nH]c4-c4cc(Cl)ccc4F)nc3c2)CCN1` [Compound 2-38, ethyl (2R)-4-[6-[5-(5-chloro-2-fluoro-phenyl)-1H-imidazol-4-yl]-1,5-naphthyridin-3-yl]piperazine-2-carboxylate]: 3.98 to 31.6 nM and 25.1 to 158 nM.
In the same order, the values of `Fc1ccc(Cl)cc1-c1[nH]cnc1-c1ccc2ncc(-c3cn[nH]c3)cc2n1` [Compound 2-17, 2-[5-(5-chloro-2-fluoro-phenyl)-1H-imidazol-4-yl]-7-(1H-pyrazol-4-yl)-1,5-naphthyridine] are 0.0398 to 0.316 nM and 25.1 to 158 nM.
For `CNCCn1ccc(-c2cnc3ccc(-c4c[nH]nc4-c4cc(Cl)ccc4F)nc3c2)n1` [Compound 1-92, 2-[3-[6-[3-(5-chloro-2-fluoro-phenyl)-1H-pyrazol-4-yl]-1,5-naphthyridin-3-yl]pyrazol-1-yl]-N-methyl-ethanamine], the Ki in experiment [1] is 0.0398 to 0.316 nM. In addition, the IC50 in experiment [2] is ≤ 20 nM.
In the same order, the values of `COCC1CN(c2cnc3ccc(-c4c[nH]nc4-c4cc(Cl)ccc4F)nc3c2)CCN1C` (racemic) [Compound 1-80, 2-[3-(5-chloro-2-fluoro-phenyl)-1H-pyrazol-4-yl]-7-[rac-(3R)-3-(methoxymethyl)-4-methyl-piperazin-1-yl]-1,5-naphthyridine] are 0.398 to 3.16 nM and 25.1 to 158 nM.
The matching figures for `Fc1ccc(Cl)cc1-c1n[nH]cc1-c1ccc2ncc(N3CC4CNCC43)cc2n1` (centres unmarked) [Compound 1-54, 2-[3-(5-chloro-2-fluoro-phenyl)-1H-pyrazol-4-yl]-7-(3,6-diazabicyclo[3.2.0]heptan-6-yl)-1,5-naphthyridine]: 0.398 to 3.16 nM and 25.1 to 158 nM.
In the same order, the values of `NCCn1cc(-c2cnc3ccc(-c4c[nH]nc4-c4cc(Cl)c(F)cc4F)nc3c2)cn1` [Compound 6-41, 2-[4-[6-[3-(5-chloro-2,4-difluoro-phenyl)-1H-pyrazol-4-yl]-1,5-naphthyridin-3-yl]pyrazol-1-yl]ethanamine] are ≤ 0.0316 nM and 25.1 to 158 nM.
For `CN(C)C1CCN(c2cnc3ccc(-c4c[nH]nc4-c4cc(Cl)c(F)cc4F)nc3c2)CC1` [Compound 6-18, 1-[6-[3-(5-chloro-2,4-difluoro-phenyl)-1H-pyrazol-4-yl]-1,5-naphthyridin-3-yl]-N,N-dimethyl-piperidin-4-amine], the Ki in experiment [1] was 0.0398 to 0.316 nM. For the same compound, in experiment [2], the IC50 is 25.1 to 158 nM.
The matching figures for `CC(C)NC1CC=C(c2cnc3ccc(-c4c[nH]nc4-c4ccc(F)c(F)c4)nc3c2)CC1` (centres unmarked) [Compound 8-24, 4-(6-(3-(3,4-difluorophenyl)-1H-pyrazol-4-yl)-1,5-naphthyridin-3-yl)-N-isopropylcyclohex-3-en-1-amine]: ≤ 0.0316 nM and ≤ 20 nM.
Turning to `COC(=O)c1coc(-c2cnc3ccc(-c4c[nH]nc4-c4cc(Cl)ccc4F)nc3c2)n1` [Compound 1-104, methyl 2-[6-[3-(5-chloro-2-fluoro-phenyl)-1H-pyrazol-4-yl]-1,5-naphthyridin-3-yl]oxazole-4-carboxylate], the Ki in experiment [1] is 0.398 to 3.16 nM. The IC50 in experiment [2] was 25.1 to 158 nM.
For the compound `COCc1cccc(-c2n[nH]cc2-c2ccc3ncc(N4CCC(N(C)C)CC4)cc3n2)c1` [Compound 14-7, 1-[6-[3-[3-(methoxymethyl)phenyl]-1H-pyrazol-4-yl]-1,5-naphthyridin-3-yl]-N,N-dimethyl-piperidin-4-amine], the Ki in experiment [1] was 3.98 to 31.6 nM. Besides, in experiment [2], the IC50 is 25.1 to 158 nM.
With `CC(C)NCCN1CCN(c2cnc3ccc(-c4c[nH]nc4-c4cc(Cl)c(F)cc4F)nc3c2)CC1` [Compound 6-39, N-[2-[4-[6-[3-(5-chloro-2,4-difluoro-phenyl)-1H-pyrazol-4-yl]-1,5-naphthyridin-3-yl]piperazin-1-yl]ethyl]propan-2-amine], the Ki in experiment [1] is 0.0398 to 0.316 nM. The IC50 in experiment [2] was 25.1 to 158 nM.
The matching figures for `Fc1ccc(Cl)cc1-c1n[nH]cc1-c1ccc2ncc(-c3cn4c(n3)CNCC4)cc2n1` [Compound 1-116, 2-[3-(5-chloro-2-fluoro-phenyl)-1H-pyrazol-4-yl]-7-(5,6,7,8-tetrahydroimidazo[1,2-a]pyrazin-2-yl)-1,5-naphthyridine]: 0.0398 to 0.316 nM and 25.1 to 158 nM.
With `O=C(O)[C@H]1CN(c2cnc3ccc(-c4nc[nH]c4-c4cc(Cl)ccc4F)nc3c2)CCN1` [Compound 2-28, (2R)-4-[6-[5-(5-chloro-2-fluoro-phenyl)-1H-imidazol-4-yl]-1,5-naphthyridin-3-yl]piperazine-2-carboxylic acid], in experiment [1], the Ki was 0.398 to 3.16 nM. Also, in experiment [2], the IC50 is 200 to 1260 nM.
In the case of `Fc1cc(F)c(-c2n[nH]cc2-c2ccc3ncc(-c4cnc5n4CCNC5)cc3n2)cc1Cl` [Compound 6-48, 2-[3-(5-chloro-2,4-difluoro-phenyl)-1H-pyrazol-4-yl]-7-(5,6,7,8-tetrahydroimidazo[1,2-a]pyrazin-3-yl)-1,5-naphthyridine], the Ki in experiment [1] is 0.398 to 3.16 nM. In addition, the IC50 in experiment [2] is 25.1 to 158 nM.
The matching figures for `CN(C)C(=O)[C@H]1CN(c2cnc3ccc(-c4c[nH]nc4-c4cc(Cl)ccc4F)nc3c2)CCN1` [Compound 1-61, (2R)-4-[6-[3-(5-chloro-2-fluoro-phenyl)-1H-pyrazol-4-yl]-1,5-naphthyridin-3-yl]-N,N-dimethyl-piperazine-2-carboxamide]: 0.398 to 3.16 nM and 25.1 to 158 nM.
In the same order, the values of `Fc1ccc(Cl)cc1-c1[nH]cnc1-c1ccc2ncc(-c3nnn4c3CNCC4)cc2c1` [Compound 17-12, 6-[5-(5-chloro-2-fluoro-phenyl)-1H-imidazol-4-yl]-3-(4,5,6,7-tetrahydrotriazolo[1,5-a]pyrazin-3-yl)quinoline] are 0.398 to 3.16 nM and 25.1 to 158 nM.
The matching figures for `Fc1ccc(Cl)cc1-c1[nH]nnc1-c1ccc2ncc(N3CCNCC3)cc2c1` [Compound 18-5, 6-[5-(5-chloro-2-fluoro-phenyl)-1H-triazol-4-yl]-3-piperazin-1-yl-quinoline]: 0.398 to 3.16 nM and 25.1 to 158 nM.
Regarding `Fc1ccc(Cl)cc1-c1[nH]cnc1-c1ccc2ncc(N3CCNCC3)cc2c1` [Compound 17-4, 6-(5-(5-chloro-2-fluorophenyl)-1H-imidazol-4-yl)-3-(piperazin-1-yl)quinoline], in experiment [1], the Ki is 0.398 to 3.16 nM. Moreover, the IC50 in experiment [2] was 25.1 to 158 nM.
With `O=C(O)[C@H]1CN(c2cnc3ccc(-c4nc[nH]c4-c4cc(Cl)c(F)cc4F)nc3c2)CCN1` [Compound 7-3, (R)-4-(6-(5-(5-chloro-2,4-difluorophenyl)-1H-imidazol-4-yl)-1,5-naphthyridin-3-yl)piperazine-2-carboxylic acid], the Ki in experiment [1] was 0.398 to 3.16 nM. Moreover, the IC50 in experiment [2] was 25.1 to 158 nM.
Consider `COCc1cccc(-c2n[nH]cc2-c2ccc3ncc(N4CCC(N5CCN(C)CC5)CC4)cc3n2)c1` [Compound 14-2, 2-[3-(3-(methoxymethyl)phenyl]-1H-pyrazol-4-yl]-7-[4-(4-methylpiperazin-1-yl)-1-piperidyl]-1,5-naphthyridine], for which the Ki in experiment [1] was 0.398 to 3.16 nM. For the same compound, the IC50 in experiment [2] is 25.1 to 158 nM.
The matching figures for `COC(=O)[C@H]1CN(c2cnc3ccc(-c4c[nH]nc4-c4cc(Cl)ccc4F)nc3c2)CCN1` [Compound 1-62, methyl (2R)-4-[6-[3-(5-chloro-2-fluoro-phenyl)-1H-pyrazol-4-yl]-1,5-naphthyridin-3-yl]piperazine-2-carboxylate]: 0.398 to 3.16 nM and 25.1 to 158 nM.
The matching figures for `O=C(O)CC1CNCCN1c1cnc2ccc(-c3nc[nH]c3-c3cc(Cl)ccc3F)nc2c1` (centres unmarked) [Compound 2-32, 2-[1-[6-[5-(5-chloro-2-fluoro-phenyl)-1H-imidazol-4-yl]-1,5-naphthyridin-3-yl]piperazin-2-yl]acetic acid]: 3.98 to 31.6 nM and 200 to 1260 nM.
In the same order, the values of `O=C(O)CC1CNCCN1CCNc1cnc2ccc(-c3nc[nH]c3-c3cc(Cl)ccc3F)nc2c1` (centres unmarked) [Compound 2-34, 2-[1-[2-[[6-[5-(5-chloro-2-fluoro-phenyl)-1H-imidazol-4-yl]-1,5-naphthyridin-3-yl]amino]ethyl]piperazin-2-yl]acetic acid] are 0.0398 to 0.316 nM and 200 to 1260 nM.
